Assay: Test 1-3: water evaporation rate of aqueous composition in open dish
Format: physicochemical
Details: Test 2
Procedure: Five grams of each of samples 1 to 15 having components shown in Table 1 were placed in respective dishes having an opening area of 13.85 cm^2 and were left at a humidity of 30% and a temperature of 30° C. Changes in weight of each sample were measured 1, 3, 5, 7, 12, 18, and 24 hr later. The slope of the changes in weight, the n of nX+m (X represents time (hr)) calculated by a least-squares method, was defined as the water evaporation rate (unit: mg/h), and the absolute value thereof was plotted. The test was conducted three times for each sample, and the average value thereof was determined. Note that a lower water evaporation rate means higher inhibition of evaporation.
Changes in weight of samples 15 to 25 shown in Table 3 were measured under the same conditions as in Test 1, and water evaporation rates were determined.
Changes in weight of samples of Examples 1 to 7 and Comparative Examples 1 to 7 having components shown below were measured under the same conditions as in Test 1, and water evaporation rates were determined. In addition, viscosities at 25° C. were measured with a B-type viscometer (Vismetron viscometer: model VS-A1, Rotor No. 1, 12 rotations, 30 sec).

polyoxyethylene(2) behenyl ether [polyoxyethylene behenyl ether]
Amount showing a high water-evaporation inhibiting effect: ≥ 0.2 % by mass
Amount showing a water-evaporation inhibiting effect: ≥ 0.1 % by mass

Reference: US20130039871A1, “AQUEOUS COMPOSITION CONTAINED IN CONTAINER” (KAO CORPORATION, priority 2010, published 2013)
